These results are taken from patent EP0490598A1 (priority 1990, dated 1992).

Converted amounts (≈) assume the structure as drawn. Read-outs that look alike come from different tables or passages of the source.

The subject of one assay is P-388 cells. Nature of the assay: Antitumoral assay, P-388 cell growth (cell counting). Type of assay: cell-based, mouse. Conditions: for IC50: Mus musculus. How it is done: (§1) Pateamine was diluted in MeOH/CH₂Cl₂ 1:1 at 100 ng/ml and it has been tested at different concentrations. The solvent was allowed to evaporate before the cells were seeded.
Four general anitumoural assays, employing the current screening protocols have been carried out using the following cells: P-388 (lymphoid neoplasm from DBA/2 mouse) A-549 (human lung carcinoma) HT-29 (human colon carcinoma) KB (human oral epidermoid carcinoma)
P-388 cells were seeded into 16 mm wells at 1 x 10⁴ per well in […] aliquots of MEM 10FCS containing the indicated concentration or drug. All determinations were carried out in duplicate. After three days of incubation cells were counted and the IC₅₀ was determined.

Another assay deals with BHK cells. Nature of the assay: Cytotoxicity assay, BHK cell growth (cell counting). The assay is classed as cell-based, hamster. Conditions: Mesocricetus auratus, 72 h, three days of incubation, read-out: IC50 ng/ml approx. The protocol: as §1
It has been done two kinds of cytotoxicity assays, one of them employing the same screening protocols and another one with the MTT method. In both cases the cells were: CV-1 (monkey kidney fribroblast) BHK (hamster kidney fibroblast)
BHK cells were seeded into 16 mm wells at 2 x 10⁴ per well. The day after the inoculum was replaced by 1 ml aliquots of MEM 10FCS containing the indicated concentration of drug. All determinations were carried out in duplicate. After three days of incubation cells were counted and the IC₅₀ was determined.

For assay [1], the system named is VSV (vesicular stomatitis virus). The assay is classed as cell-based. Conditions: VSV in BHK cells.
Another assay has as its system murine lymphocytes. The assay is described as follows: Mixed Lymphocyte Reaction (MLR) assay. The assay is classed as cell-based, mice. Conditions: Mus musculus, two-way MLR, Balb/c and C57B1/6 lymphocytes, 96 hours, 3H-thymidine. How it is done:
(§2) Murine lymphocytes were derived by splenectomy, under sterile conditions, from Balb/c and C57B1/6 mice sacrificed by cervical dislocation. Spleens were homogenized in 15 mM RPMI medium […], 87%; fetal calf serum, 10%; L-glutamine (200 mM), 2% and supplemented with 1% antibiotic-antimycotic solution (GIBCO) and 25 µg/ml gentamycin. Red blood cells were lysed by brief exposure to sterile, distilled water and subsequently reconstituted to normal tonicity with PBS (10x). The final cell preparation was enumerated, and the viability evaluated, by means of a hemacytometer using the trypan blue exclusion method.
The MLR is an in vitro test of cellular immunity in which murine lymphocytes from genetically dissimilar animals are cocultured to mutually induce cell proliferation (i.e. two-way MLR method). […] Data from the MLR is generated as dpm of radioactivity which is then expressed as a percentage of cellular activity, relative to control, using the following reduced formula: (Experimental value - (Balb/c - C57B1/6 - Media))/(Positive Control - (Balb/c - C57B1/6 - Media))x 100 [formula] […]
Reconstituted compound at each of several concentrations was added in duplicate (10µl) into wells of a 96-well microtiter plate and evaporated to dryness at room temperature. […] The radioactivity from DNA-bound 3H thymidine was counted using a dry INOTECH counter. Results were calculated as described above.

The test system of the next assay is Balb/c lymphocytes. Nature of the assay: Lymphocyte Viability (LCV) assay, MTT. Type of assay: cell-based, mice. Conditions: Mus musculus, 96 hours, 50% viability. The protocol:
as §2
The LCV is an in vitro cytotoxicity assay for murine lymphocytes designed by the investigator. […] The percent viable cells is determined by the MTT-thiazolyl blue method after a similar incubation in the MLR of lymphocytes with the test sample. […] If there is no significant reduction in cell viability, as determined by this detection method, then damaged cells are probably not present for low data values generated in the MLR. Colorimetric data from the LeV is calculated as a percentage of viability, relative to control, using the following formula: (Experimental value - (Nonspecific Color))/(Positive Control - (Media))x 100 [formula] […]

In the case of `CC(/C=C/C(C)=C/C1Cc2nc(cs2)C(C)CC(N)CC(=O)OC(C)C/C(C)=C/C=C\C(=O)O1)=C\CN(C)C` (centres unmarked) [PATEAMINE, pateamine], the “% Inhibition P-388 cell growth” value in the assay on P-388 cells (0.1ng, three days of incubation) worked out at 11%; in the assay on P-388 cells (1ng, three days of incubation), 100%; with P-388 cells (5ng, three days of incubation) it was 100%; with P-388 cells (10ng, three days of incubation), 100%. Moreover, the IC50 is roughly 0.3 ng/mL (≈ 0.54 nM) in the assay with P-388 cells (P388, 72 h, P-388, three days of incubation, read-out: IC50 ng/ml approx.); 0.15 ng/mL (≈ 0.27 nM) with P-388 cells (P388, read-out: IC50); roughly 3 ng/mL (≈ 5.4 nM) with BHK cells; less than 1.5 ng/mL in the assay on murine lymphocytes; 4100 ng/mL (≈ 7380 nM) in the assay with Balb/c lymphocytes. The same molecule came in with an IC50 ng/disk in assay [1] greater than 10 ng/disk. The “% Inhibition BHK/VSV (sign for plaque reduction)” value in assay [1] (10ng) is listed as 14 - (The sign (-), indicates no inhibition of virus replication.).
